Test results taken from article PMC12534982 (Journal of Experimental & Clinical Cancer Research : CR, 2025).

Key:
[1] = system: basal forebrain cholinergic neurons (BFCNs); experiment: Cytoskeleton immunostaining; assay type: cell-based, mouse; details: 24 h
Method: (§1) To evaluate DNA damage, cancer cells (1 × 10^3) were cultured in 8-well collagen IV Ibidi chamber slides (#80,822; Ibidi) for 24 h, treated with DMSO or NK-A 17E-233I (25 µM) for an additional 24 h, and then fixed. For assessing the integrity of the cytoskeleton, neuronal cells (BFCNs) were cultured on coverslips for 14 days, while non-neuronal cells (cancer cells) were cultured on coverslips for 24 h. Both neuronal and non-neuronal cells were treated with DMSO or NK-A 17E-233I (1 µM) for 24 h, fixed, and permeabilized as described in [21]. Samples were then blocked (non-neuronal cells with 3% BSA in PBS-T and neuronal cells with 10% BSA in PBS-T) and incubated overnight at 4 °C with the appropriate primary antibodies. Following this, samples were washed with PBS-T and incubated for 1 h with Alexa-488 Phalloidin (#A12379; Invitrogen-ThermoFisher Scientific) to visualize F-actin, along with the corresponding secondary antibodies. The cells were mounted with Ibidi mounting medium containing 4',6-diamidino-2-phenylindole (DAPI, #50011; Ibidi) prior to imaging.
The primary antibodies utilized were: anti–α-tubulin at a 1:1000 dilution (#SC-32293; Santa Cruz), anti–γ-H2AX and anti-Rad51 at 1:500 dilution (#ab22551 and #ab133534, respectively; […]), and anti–microtubule-associated protein 2 (MAP2) at a 1:1000 dilution (#OSM00149W; ThermoFisher Scientific). […]

colorectal cancer cells [2] = experiment: DNA damage immunostaining (γ-H2AX, Rad51); assay type: cell-based, human; details: 25 µM, 24 h
Method: as §1, with “imaging. […]” for “imaging.”
(§2) The density of γ-H2AX, Rad51, ΔΨm, and oxidative stress in cancer cells was measured as described in [32], utilizing custom macros available as open access at Zenodo (https://zenodo.org/records/8387899) to obtain raw intensities and individual cell area.

colorectal cancer cells [3] = experiment: Annexin V-FITC/PI double staining; assay type: cell-based, human; details: 25 µM
Method: Cells were harvested as described in the flow cytometry-based cell cycle analysis section. The supernatant was discarded, and the cells were resuspended in 100 μL of cold Annexin buffer (pH 7.4) composed of 18 mL distilled water, 5.5 mg CaCl2, 164 mg NaCl, and 2 mL of 100 mM HEPES. A 1:1 mixture of Annexin V (#130–097-928; Miltenyi Biotec) and propidium iodide (PI, 1 mg/mL) was added to all tubes and incubated in the dark at room temperature for 20 min. Annexin buffer was added, and the samples were analyzed using a CytoFLEX within 1 h. CytExpert and FlowJo software were utilized for data acquisition and analysis.

Δ29 DHODH (N-truncated) = target: T1, Δ29 DHODH (N-truncated) (Homo sapiens, UniProt Q02127); experiment: In vitro DHODH enzyme activity assay; assay type: biochemical; details: 1 mM DHO
T1 construct: N-terminal truncated form of human DHODH (Δ29), where the N-terminal transmembrane domain was removed; made in house
Method: (§3) The assays to determine the inhibition constants of inhibitors of the recombinant DHODH enzymes are described in [28, 29].
(§4) The IC50 values were determined by fitting the equation V = V max/(1 + (I/IC50)^h) to the assay data using SigmaPlot14 (Systat Software Inc.). In this equation, V represents the measured enzyme activity, while V max indicates the maximum enzyme activity reached. I denotes the inhibitor concentration, and h describes the slope of the fitted curve.

DHODH R136C = target: T2, DHODH R136C (Homo sapiens, UniProt Q02127, R135C); experiment: In vitro DHODH enzyme activity assay; assay type: biochemical; details: 1 mM DHO
T2 construct: made in house
Method: as §3, §4

[4] = target: T3, recombinant human DHODH (full-length wild-type) (Homo sapiens, UniProt Q02127); experiment: In vitro DHODH enzyme activity assay; assay type: biochemical; details: for IC50: 0.1 mM QD, mean ± SD (n = 4–6); for Ki: assuming pure competitive inhibition
T3 construct: The generation of recombinant enzymes (full-length wild-type); made in house
Method: as §3, §4

colorectal cancer cells [5] = experiment: Mitochondrial membrane potential (MitoTracker Red); assay type: cell-based, human
Method: Cancer cells (1 × 10^3) were cultured in 8-well collagen IV Ibidi chamber slides and treated with DMSO or NK-A 17E-233I (25 µM) for 24 h. The media was replaced with fresh media containing 100 nM MitoTracker Red dye to measure ΔΨm (1 mM stock; #M7512; Thermo Fisher Scientific) and 5 µM CellROX Deep Red Reagent to assess oxidative stress levels (2.5 mM stock; #C10422; Thermo Fisher Scientific) for 45 min. The cells were then fixed with 4% methanol-free PFA, washed with PBS, and mounted with Ibidi mounting medium containing 4',6-diamidino-2-phenylindole (DAPI) prior to imaging.
as §2

[6] = system: cell lines from other cancer types (osteosarcoma, breast, lung); experiment: Cell morphology studies (brightfield); assay type: cell-based, human; details: 25 µM, 48 h
From the text: Brightfield images were captured using a Leica DMi8 microscope with a 10X or 20X objective (HC PL FLUOTAR 10X/0.45 or 20X/0.75) equipped with a Leica DFC9000GT camera, and processed with a Leica Application Suite X (LAS X) Life Science Microscope Software (v3.5.5.19976, RRID:SCR_013673).

T3 sequence (Q02127 whole entry): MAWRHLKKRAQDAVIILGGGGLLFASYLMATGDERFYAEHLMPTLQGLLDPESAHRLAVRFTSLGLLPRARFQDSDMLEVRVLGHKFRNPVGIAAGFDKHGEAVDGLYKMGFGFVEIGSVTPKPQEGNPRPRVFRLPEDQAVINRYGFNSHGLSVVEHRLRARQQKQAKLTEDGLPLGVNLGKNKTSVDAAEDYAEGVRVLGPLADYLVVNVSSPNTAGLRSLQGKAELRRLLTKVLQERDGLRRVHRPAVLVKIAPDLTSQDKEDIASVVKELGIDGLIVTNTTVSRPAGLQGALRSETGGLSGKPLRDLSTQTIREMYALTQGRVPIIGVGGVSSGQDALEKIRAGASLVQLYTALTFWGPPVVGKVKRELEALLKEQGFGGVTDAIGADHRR
T1 sequence (Q02127 29-395, stated change not applied): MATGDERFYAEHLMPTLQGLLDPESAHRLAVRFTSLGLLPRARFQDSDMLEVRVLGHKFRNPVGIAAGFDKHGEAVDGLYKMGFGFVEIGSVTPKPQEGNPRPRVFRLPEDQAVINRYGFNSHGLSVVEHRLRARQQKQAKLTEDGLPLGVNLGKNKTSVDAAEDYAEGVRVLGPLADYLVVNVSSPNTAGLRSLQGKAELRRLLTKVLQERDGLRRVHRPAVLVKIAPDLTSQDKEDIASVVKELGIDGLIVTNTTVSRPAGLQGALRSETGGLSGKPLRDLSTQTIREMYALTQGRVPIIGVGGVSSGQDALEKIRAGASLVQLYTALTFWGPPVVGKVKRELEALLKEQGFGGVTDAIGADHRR
T2 sequence (Q02127 whole entry R135C): as the sequence (Q02127 whole entry) above, with R135C counted along it

SMILES: COc1cc(C)c(Oc2cc(C)cc(O)c2O)c(O)c1 [NK-A 17E-233I]
- dendritic and cytoskeletal structures (F-actin, MAP2) [1]: retained their dendritic and cytoskeletal structures
- intensity of γ-H2AX and Rad51 (colorectal cancer cells [2]): significant increase
- late-apoptotic cells (Annexin V-FITC) (colorectal cancer cells [3]; 48 h): significantly increased
- apoptosis with pan-caspase inhibitor Z-VAD-FMK (colorectal cancer cells [3]; Z-VAD-FMK 10 µM, 24 h): abolished its activity
- IC50 (Δ29 DHODH (N-truncated); mean ± SD (n = 3)): 99.1 ± 47.8 µM
- average of the fitted slopes (Δ29 DHODH (N-truncated); ± SD): 1 ± 0.8
- IC50 (DHODH R136C; mean ± SD (n = 3)): 48.6 ± 30.8 µM
- average of the fitted slopes (DHODH R136C; ± SD): 0.6 ± 0.2
- mode of inhibition with respect to DHO [4]: competitive inhibitor
- IC50 ([4]; 0.1 mM DHO): 28.9 ± 14.5 µM
- IC50 ([4]; 1 mM DHO): 98.3 ± 42.6 µM
- fold increase in the IC50 value with increasing concentrations of DHO ([4]; 1 mM vs 0.1 mM DHO): 3.4 fold
- Ki ([4]; derived from the IC50 at 0.1 mM DHO): 3.9 µM
- Ki ([4]; derived from the IC50 at 1 mM DHO): 1.5 µM
- mitochondrial membrane potential (ΔΨm) (colorectal cancer cells [5]; HCT116, 25 µM, 24 h): significantly decreased
- mitochondrial membrane potential (ΔΨm) (colorectal cancer cells [5]; different cancer cell lines (HT-29), 25 µM): decreased
- cytotoxic effects [6]: cytotoxic effects
